{"source": "patent US12263155B2", "about": "“Combinations of monoamine oxidase inhibitors and serotonin receptor agonists and their therapeutic use” (Remedi, Inc., priority 2022, dated 2025)", "origin": "cited, not measured here", "key": {"[1]": {"target": "T1, platelet MAO-B (Homo sapiens, UniProt P27338)", "T1 construct": "host or cells: human platelets", "T1 sequence (P27338 1-520)": "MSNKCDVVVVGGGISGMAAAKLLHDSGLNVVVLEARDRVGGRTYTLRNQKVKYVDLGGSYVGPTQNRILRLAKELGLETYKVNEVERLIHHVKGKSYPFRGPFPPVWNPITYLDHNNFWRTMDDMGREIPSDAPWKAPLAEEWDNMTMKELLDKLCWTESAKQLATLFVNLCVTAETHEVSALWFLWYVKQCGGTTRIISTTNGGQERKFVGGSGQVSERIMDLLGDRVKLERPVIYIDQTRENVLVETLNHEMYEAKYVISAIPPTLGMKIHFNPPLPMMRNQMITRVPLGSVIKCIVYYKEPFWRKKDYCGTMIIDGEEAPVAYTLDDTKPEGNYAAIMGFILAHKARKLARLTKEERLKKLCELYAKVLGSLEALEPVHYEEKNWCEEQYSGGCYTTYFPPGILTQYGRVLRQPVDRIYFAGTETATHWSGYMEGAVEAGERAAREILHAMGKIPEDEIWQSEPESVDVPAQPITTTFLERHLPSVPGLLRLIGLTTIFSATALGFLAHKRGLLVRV", "conditions": "cited from earlier work"}, "[2]": {"conditions": "in vivo; cited from earlier work"}}, "note": "Read-outs that look alike come from different tables or passages of the source."}
{"smiles": "O=C(NCCN1CCOCC1)c1ccc(Cl)cc1", "note": "[moclobemide]", "values": [{"measurement": "inhibition of platelet MAO-B", "setting": "[1]; 450 mg dose", "result": 32, "unit": "%"}, {"measurement": "inhibition of platelet MAO-B", "setting": "[1]; human subjects, single 100 mg dose", "result": 27, "unit": "%"}]}
{"smiles": "CN(C)CCc1c[nH]c2ccccc12", "note": "[DMT, N,N-dimethyltryptamine]", "values": [{"measurement": "apparent volume of distribution", "setting": "[2]", "result": "36 to 55", "unit": "L/kg"}]}
